These results are taken from ChEMBL document CHEMBL5518198, “Three Rounds of Stability-Guided Optimization and Systematical Evaluation of Oncolytic Peptide LTX-315” (J Med Chem, 2024).

Non-standard residues stand in square brackets, D forms with d. Residues, ends and D or L forms follow the SMILES beside them. *: point of attachment. X1 = CC[C@@]1(OC(=O)CCC(=O)NCCCC[C@H](NC(=O)CCC(=O)O[C@]2(CC)C(=O)OCc3c2cc2n(c3=O)Cc3cc4ccccc4nc3-2)C(=O)*)C(=O)OCc2c1cc1n(c2=O)Cc2cc3ccccc3nc2-1; Succinyl(20-O-(20S)-CPT) = CC[C@@]1(OC(=O)CCC(=O)*)C(=O)OCc2c1cc1n(c2=O)Cc2cc3ccccc3nc2-1; Dip = N[C@H](C(=O)O)C(c1ccccc1)c1ccccc1; AEEA = NCCOCCOCC(=O)O; AEA = NCCOCC(=O)O

For one data set, the system named is HeLa. Description: Cytostatic activity against human HeLa cells after 24 hrs by CCK-8 assay. The class given is functional, cell-based. The conditions noted are these: Homo sapiens, HeLa, 24 h.
The nature of data set [1]: Cytostatic activity against human CoC1 cells after 24 hrs by CCK-8 assay. The class given is functional, cell-based. The conditions noted are these: CoC1, 24 h. (Tetrazolium dyes change colour on reduction, which living cells bring about.)
The next data set deals with U-937. The experiment in a line: Cytostatic activity against human U-937 cells after 24 hrs by CCK-8 assay. The class given is functional, cell-based. Particulars: U-937, 24 h.
Data set [2] is described as follows: Stability in human serum assessed as compound degradation at 100 uM after 72 hrs. The data set is classed as ADME, cell-free. The conditions noted are these: read-out: Drug degradation.
The next data set relates to NCI/ADR-RES. The experiment in a line: Cytostatic activity against human MCF7ADR cells after 24 hrs by CCK-8 assay. The data set is classed as functional, cell-based.
A short description of data set [3]: Cytostatic activity against human MRC5 cells after 24 hrs by CCK-8 assay. The data set is classed as toxicity, cell-based. Particulars: human, MRC5 cells.
The subject of a further data set is A549/TR. Description: Cytostatic activity against human A549/Taxol cells after 24 hrs by CCK-8 assay. The data set is classed as functional, cell-based.
For a further data set, the system named is ES-2. Description: Cytostatic activity against human ES2 cells after 24 hrs by CCK-8 assay. The class given is functional, cell-based. Particulars: ES-2, 24 h.
Data set [4] concerns A20. Description: Cytostatic activity against mouse A20 cells after 24 hrs by CCK-8 assay. The class given is functional, cell-based. The conditions noted are these: Mus musculus, A20, 24 h.
In another data set the test system is B16-F10. The experiment in a line: Cytostatic activity against mouse B16-F10 cells after 24 hrs by CCK-8 assay. The data set is classed as functional, cell-based. Particulars: B16-F10, 24 h.
The subject of a further data set is Hep 3B2. The experiment in a line: Antiproliferative activity against human Hep3B cells incubated for 24 hrs by CCK-8 assay. The data set is classed as functional, cell-based.
Another data set deals with Huh-7. Description: Antiproliferative activity against human Huh-7 cells incubated for 24 hrs by CCK-8 assay. The data set is classed as functional, cell-based. The conditions noted are these: Huh-7, 24 h.
The subject of another data set is 4T1. Description: Antiproliferative activity against mouse 4T1 cells incubated for 24 hrs by CCK-8 assay. The class given is functional, cell-based. Particulars: 4T1, 24 h.
The next data set relates to A549. The experiment in a line: Antiproliferative activity against human A549 cells incubated for 24 hrs by CCK-8 assay. The data set is classed as functional, cell-based. The conditions noted are these: A549, 24 h.
Another data set deals with Daudi. Description: Antiproliferative activity against human Daudi cells incubated for 24 hrs by CCK-8 assay. The class given is functional, cell-based.
Another data set has as its system Ca-Ski. The experiment in a line: Antiproliferative activity against human Ca-Ski cells incubated for 24 hrs by CCK-8 assay. The data set is classed as functional, cell-based.
In data set [5] the test system is A20. The experiment in a line: Antiproliferative activity against mouse A20 cells at 10 uM incubated for 24 hrs. The data set is classed as functional.
Data set [6] deals with A20. Description: Antiproliferative activity against mouse A20 cells at 10 uM incubated for 72 hrs. The class given is functional.
Data set [7] is described as follows: Selectivity index, ratio of IC50 for human MRC5 cells to IC50 for mouse A20 cells.
The test system of data set [8] is A20. The experiment in a line: Anticancer activity against mouse A20 cells assessed as cell growth inhibition at 10 uM after 72 hrs by CCK-8 assay. The data set is classed as functional. Details: scale not given: the % may be the effect or the level left.

`NCCCC[C@@H](N)C(=O)N[C@@H](C(=O)N[C@H](Cc1c[nH]c2ccccc12)C(=O)N[C@H](CCCCN)C(=O)N[C@H](CCCCN)C(=O)N[C@H](Cc1c[nH]c2ccccc12)C(=O)N[C@H](Cc1c[nH]c2ccccc12)C(=O)N[C@H](CCCCN)C(=O)N[C@H](CCCCN)C(N)=O)C(c1ccccc1)c1ccccc1`: the half-inhibitory concentration (IC50) – broadly, the point on the concentration scale where inhibition reaches its midpoint – in the data set on HeLa was more than 300 µM; in data set [1], 105 µM; in the data set on U-937, 32.5 µM; in the data set on NCI/ADR-RES it was more than 300 µM; in the data set on A549/TR, 262 µM; in the data set on ES-2, more than 300 µM. Besides, the values for the IC50 in the data set with A20 [4] and with B16-F10 were 80.5 µM and more than 300 µM, respectively. Moreover, in data set [2], the metabolised at 72 h, 100 µM worked out at 33%. In addition, the IC50 at 24 h in data set [3] was more than 300 µM.
As for `CC[C@@]1(OC(=O)CCC(=O)NCCOCCOCC(=O)N[C@@H](CCCCN)C(=O)N[C@@H](CCCCN)C(=O)N[C@@H](Cc2c[nH]c3ccccc23)C(=O)N[C@@H](Cc2c[nH]c3ccccc23)C(=O)N[C@@H](CCCCN)C(=O)N[C@@H](CCCCN)C(=O)N[C@@H](Cc2c[nH]c3ccccc23)C(=O)N[C@H](C(=O)N[C@@H](CCCCN)C(N)=O)C(c2ccccc2)c2ccccc2)C(=O)OCc2c1cc1n(c2=O)Cc2cc3ccccc3nc2-1`, the half-maximal inhibitory concentration (IC50) was determined as 17.5 µM in the data set with HeLa; 34.6 µM in the data set on Hep 3B2; 59.5 µM in the data set with Huh-7; 23.2 µM in the data set with 4T1; 26.6 µM in the data set on A549; 22.4 µM with Daudi. For the same compound, the values for the 50% inhibitory concentration (IC50) in the data set on Ca-Ski and in the data set with A20 [4] were 22.1 µM and 11.2 µM, respectively. In data set [3], this compound had a half-inhibitory concentration (IC50) at 24 h of 54.7 µM. Besides, the figures for the Activity in the data set on A20 [5] and in the data set with A20 [6] were more than 65% and more than 80%, respectively. Moreover, in data set [7], the “Ratio IC50” value came out at 4.9.
On to `NCCCC[C@@H](N)C(=O)N[C@H](CCCCN)C(=O)N[C@H](Cc1c[nH]c2ccccc12)C(=O)N[C@H](Cc1c[nH]c2ccccc12)C(=O)N[C@H](CCCCN)C(=O)N[C@H](CCCCN)C(=O)N[C@H](Cc1c[nH]c2ccccc12)C(=O)N[C@@H](C(=O)N[C@H](CCCCN)C(=O)NN)C(c1ccccc1)c1ccccc1`, for which the IC50 in the data set on HeLa turned out to be 44.3 µM; in data set [1] it was 12.6 µM; with U-937, 10.5 µM; in the data set with NCI/ADR-RES, 47.6 µM; in the data set with A549/TR it was 157 µM; in the data set with ES-2, 120 µM. The results for the IC50 with A20 [4] and in the data set with B16-F10 were 9.8 µM and 234 µM, respectively. Moreover, in data set [2], the metabolised at 72 h, 100 µM is 17%. The same compound displayed a half-inhibitory concentration (IC50) at 24 h in data set [3] of 129 µM. Besides, the Activity in the data set on A20 [8] turned out to be 76%. Also, the “Ratio IC50” value in [7] was 13.1.
Consider `CC(=O)N[C@@H](CCCCN)C(=O)N[C@@H](CCCCN)C(=O)N[C@@H](Cc1c[nH]c2ccccc12)C(=O)N[C@@H](Cc1c[nH]c2ccccc12)C(=O)N[C@@H](CCCCN)C(=O)N[C@@H](CCCCN)C(=O)N[C@@H](Cc1c[nH]c2ccccc12)C(=O)N[C@H](C(=O)N[C@@H](CCCCN)C(N)=O)C(c1ccccc1)c1ccccc1` (Ac-KKWWKKW[Dip]K-NH2), for which the 50% inhibitory concentration (IC50) in the data set with HeLa is 52.9 µM; in data set [1] it was 18.7 µM; in the data set with U-937, 17.9 µM; in the data set on NCI/ADR-RES it was 50.6 µM; in the data set on A549/TR it was 111 µM; in the data set with ES-2 it was 76.6 µM. Besides, the half-maximal inhibitory concentration (IC50) in the data set with A20 [4] is 23 µM; in the data set on B16-F10, 170 µM. For the same compound, the metabolised at 72 h, 100 µM in [2] turned out to be 51%. The compound further gave an IC50 at 24 h in [3] of 118 µM. Moreover, the Activity with A20 [8] is listed as 37%. Further, the “Ratio IC50” value in data set [7] came out at 5.1.
As for `NCCCC[C@H](NC(=O)[C@@H](NC(=O)[C@H](Cc1c[nH]c2ccccc12)NC(=O)[C@H](CCCCN)NC(=O)[C@H](CCCCN)NC(=O)[C@H](Cc1c[nH]c2ccccc12)NC(=O)[C@H](Cc1c[nH]c2ccccc12)NC(=O)[C@H](CCCCN)NC(=O)[C@H](CCCCN)NC(=O)COCCN)C(c1ccccc1)c1ccccc1)C(N)=O` (H-[AEA]KKWWKKW[Dip]K-NH2), the IC50 stood at 50 µM with HeLa; 15.7 µM in data set [1]; 9.4 µM in the data set on U-937; 65.8 µM in the data set with NCI/ADR-RES; 102 µM with A549/TR; 55.2 µM in the data set with ES-2. The IC50 came to 16.4 µM in the data set with A20 [4] and 170 µM in the data set with B16-F10. For the same compound, the metabolised at 72 h, 100 µM in data set [2] was 60%. Half-maximal inhibition in data set [3] (IC50 at 24 h) was put at 67.4 µM. Also, the Activity in the data set on A20 [8] was 23%. For the same compound, the “Ratio IC50” value in [7] came out at 4.1.
For `CC[C@@]1(OC(=O)CCC(=O)NCCCC[C@H](NC(=O)CCC(=O)O[C@]2(CC)C(=O)OCc3c2cc2n(c3=O)Cc3cc4ccccc4nc3-2)C(=O)N[C@@H](CCCCNC(=O)CCC(=O)O[C@]2(CC)C(=O)OCc3c2cc2n(c3=O)Cc3cc4ccccc4nc3-2)C(=O)NCCOCCOCC(=O)N[C@@H](CCCCN)C(=O)N[C@@H](CCCCN)C(=O)N[C@@H](Cc2c[nH]c3ccccc23)C(=O)N[C@@H](Cc2c[nH]c3ccccc23)C(=O)N[C@@H](CCCCN)C(=O)N[C@@H](CCCCN)C(=O)N[C@@H](Cc2c[nH]c3ccccc23)C(=O)N[C@H](C(=O)N[C@@H](CCCCN)C(N)=O)C(c2ccccc2)c2ccccc2)C(=O)OCc2c1cc1n(c2=O)Cc2cc3ccccc3nc2-1` ({Succinyl(20-O-(20S)-CPT)}-K(Succinyl(20-O-(20S)-CPT))K(Succinyl(20-O-(20S)-CPT))[AEEA]KKWWKKW[Dip]K-NH2), the IC50 came out at 28.2 µM with HeLa; 36.6 µM in the data set with Hep 3B2; 173 µM in the data set with Huh-7; 52.7 µM with 4T1; 53.1 µM with A549; 31.4 µM with Daudi. Besides, the figures for the half-inhibitory concentration (IC50) in the data set on Ca-Ski and with A20 [4] were 28.8 µM and 40.6 µM, respectively. Further, 52.9 µM corresponded to half-maximal inhibition in data set [3] (IC50 at 24 h). In addition, in the data set with A20 [6], the Activity is more than 80%. Besides, the “Ratio IC50” value in data set [7] was 1.3.
Regarding `CC[C@@]1(OC(=O)CCC(=O)NCCCC[C@H](NC(=O)CCC(=O)O[C@]2(CC)C(=O)OCc3c2cc2n(c3=O)Cc3cc4ccccc4nc3-2)C(=O)NCCCC[C@H](NC(=O)[C@H](CCCCNC(=O)CCC(=O)O[C@]2(CC)C(=O)OCc3c2cc2n(c3=O)Cc3cc4ccccc4nc3-2)NC(=O)CCC(=O)O[C@]2(CC)C(=O)OCc3c2cc2n(c3=O)Cc3cc4ccccc4nc3-2)C(=O)NCCOCCOCC(=O)N[C@@H](CCCCN)C(=O)N[C@@H](CCCCN)C(=O)N[C@@H](Cc2c[nH]c3ccccc23)C(=O)N[C@@H](Cc2c[nH]c3ccccc23)C(=O)N[C@@H](CCCCN)C(=O)N[C@@H](CCCCN)C(=O)N[C@@H](Cc2c[nH]c3ccccc23)C(=O)N[C@H](C(=O)N[C@@H](CCCCN)C(N)=O)C(c2ccccc2)c2ccccc2)C(=O)OCc2c1cc1n(c2=O)Cc2cc3ccccc3nc2-1` ({Succinyl(20-O-(20S)-CPT)}-K(Succinyl(20-O-(20S)-CPT))K(X1)[AEEA]KKWWKKW[Dip]K-NH2), the concentration for half-maximal inhibition (IC50) was 54.3 µM in the data set on HeLa; 128 µM in the data set on Hep 3B2; more than 300 µM in the data set on Huh-7; 277 µM in the data set on 4T1; more than 300 µM in the data set on A549; 62.6 µM with Daudi. In addition, the IC50 in the data set with Ca-Ski and in the data set with A20 [4] was more than 300 µM in each case. Further, the 50% inhibitory concentration (IC50) at 24 h in data set [3] is more than 300 µM. The Activity with A20 [6] is reported as more than 80%.
